Results as given in paper PMC5342071, “A first generation inhibitor of human Greatwall kinase, enabled by structural and functional characterisation of a minimal kinase domain construct” (Oncotarget, 2016).

Target: T1, hGWL-KinDom (Homo sapiens, UniProt Q96GX5)
T1 construct: that encoded amino acids (aa) 1-194 + ‘RTFC’ + 740-879 of hGWL; GST (rhinovirus 3C-protease cleavable) (N, cleaved yes); made in house; host or cells: E. coli Rosetta2(DE3)
Experiment: Thermal shift assay
Type: binding
Conditions: read-out: temperature midpoint shift (ΔTm)
Procedure: Assays were performed using a modified version of the protocol previously described in [41].
The protein crystallised in spacegroup P212121, with two molecules comprising the asymmetric unit. For one molecule (chain A), amino acids 30-72, 86-177 and 740-854 are readily discernible in electron density maps, whilst for the other (chain B) amino acids 30-72, 86-177 and 740-854 are readily discernible.
For thermal denaturation, samples containing protein at 1.5 µM and 5 x SYPRO Orange (diluted from a 5000 x stock supplied in DMSO; Sigma-Aldrich, Gillingham, UK) were prepared in sample buffer: 20 mM HEPES.NaOH pH 7.5, 300 mM NaCl, 0.5 mM TCEP. Denaturation curves were monitored in 96-well PCR plates using a Roche LightCycler 480 II, with 465 and 580 nm filters for excitation and emission wavelengths, respectively. The program was as follows: 1 min at 20°C, followed by a continuous increment of 0.03°C/s to a final temperature of 85°C. Temperature midpoints (Tm) for each folded to unfolded transition were determined by non-linear regression fitting of a modified Boltzmann model to normalized data in Prism 6.0 (version 6.0h, GraphPad Software, La Jolla, CA USA). […]
After stopping the above non-radioactive kinase assay with 1 volume of Kinase-Glo Max reagent the mixture was allowed to incubate for a further 15 min. […] As this assay measures ATP, activity or ATP turnover was measured as the -ΔRLU. […]

T1 sequence (Q96GX5 with tags, fused parts or gaps limits assumed): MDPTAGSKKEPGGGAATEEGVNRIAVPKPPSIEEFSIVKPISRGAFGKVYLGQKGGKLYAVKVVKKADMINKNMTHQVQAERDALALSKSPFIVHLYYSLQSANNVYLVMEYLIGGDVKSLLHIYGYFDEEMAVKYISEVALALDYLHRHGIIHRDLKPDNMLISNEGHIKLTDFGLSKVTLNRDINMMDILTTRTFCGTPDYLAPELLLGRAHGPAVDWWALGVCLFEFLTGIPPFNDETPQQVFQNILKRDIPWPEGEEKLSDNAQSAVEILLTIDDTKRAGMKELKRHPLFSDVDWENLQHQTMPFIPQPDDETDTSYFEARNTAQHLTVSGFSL

CN[C@@H]1C[C@H]2O[C@@](C)([C@@H]1OC)n1c3ccccc3c3c4c(c5c6ccccc6n2c5c31)C(=O)NC4 [STU, staurosporine]
ΔTm at 10 µM: 8.2 °C
